The values that follow come from patent publication US20030228343A1, “Method for controlling a population of social insects using 1-arylpyrazoles or 1-heteroarylpyrazoles” (priority 1995, published 2003).

Assay [1] relates to Blatella Germanica cockroaches. The experiment in a line: Bait pellet test on cockroaches in boxes, with later introduction of healthy cockroaches. The class given is in vivo. To be noted: 2.7 g bait pellet with 1.35 mg active, bait removed after 8 hours and 15 new healthy cockroaches added. The procedure: Tests are carried out on Blatella Germanica cockroaches in boxes 36×24×14 cm in size. These boxes comprise a source of water, a shelter consisting of piled pieces of cardboard, and additional food consisting of biscuit pieces.
15 cockroaches are introduced into the box without bait.
After 24 hours, a 2.7 g pellet of bait with 1.35 mg of product of formula (I) is introduced into the box.
After a further 8 hours, the bait and the additional food are removed and 15 new healthy cockroaches are introduced.

In assay [2] the test system is Lasius niger. The experiment in a line: Honey bait placed near an active anthill, population destruction. As to conditions: 10 g of a 0.05% dispersion in honey. The class given is in vivo. The text has this:
A watch glass containing 10 g of a 0.05% dispersion of compound A in honey is placed 20 cm from the entrance to an active anthill. The ants are of the species Lasius niger, for which the fraction of workers whose function is to collect food is in the region of 10% of the total population. The total population is estimated by a count carried out on an untreated anthill, referred to as the control, containing 10,000 individuals.
During the first 2 days, it is observed that the ants head in a column from the anthill to the watch glass, stop to take up the dispersion and then return to the anthill.
An update on the latter is then obtained by excavation.

Regarding `N#Cc1nn(-c2c(Cl)cc(C(F)(F)F)cc2Cl)c(N)c1[S+]([O-])C(F)(F)F` (centres unmarked) [compound A, 5-amino-3-cyano-I-[2,6-dichloro4-(trifluoromethyl)phenyl]-4[(trifluoromethyl)sulfinyl]-IH-pyrazole], the figures for the cockroaches dead in assay [1] (64 hours after introduction of the bait) and in assay [1] (after 88 hours) were 98.6% and 100%, respectively. Besides, the destruction rate result in assay [2] (20 cm from anthill entrance, excavation after 15 days, total population about 10,000 individuals) is reported as “greater than 99%”. In assay [2] (after 15 days), the “surface activity around the anthill” value was “no further surface activity”. Moreover, the “destruction of larvae in the anthill” value in assay [2] (excavation after 15 days) is recorded as “all the larvae have been destroyed”.
